Test results: the Kinase Knowledgebase extract (Sharma et al. 2016)

Biological target: PIK3CD (Human) (UniProt O00329)
Experiment: Assessment of PIK3CD Kinase Activity

Chain of PIK3CD (Human) (O00329 whole entry, looked up): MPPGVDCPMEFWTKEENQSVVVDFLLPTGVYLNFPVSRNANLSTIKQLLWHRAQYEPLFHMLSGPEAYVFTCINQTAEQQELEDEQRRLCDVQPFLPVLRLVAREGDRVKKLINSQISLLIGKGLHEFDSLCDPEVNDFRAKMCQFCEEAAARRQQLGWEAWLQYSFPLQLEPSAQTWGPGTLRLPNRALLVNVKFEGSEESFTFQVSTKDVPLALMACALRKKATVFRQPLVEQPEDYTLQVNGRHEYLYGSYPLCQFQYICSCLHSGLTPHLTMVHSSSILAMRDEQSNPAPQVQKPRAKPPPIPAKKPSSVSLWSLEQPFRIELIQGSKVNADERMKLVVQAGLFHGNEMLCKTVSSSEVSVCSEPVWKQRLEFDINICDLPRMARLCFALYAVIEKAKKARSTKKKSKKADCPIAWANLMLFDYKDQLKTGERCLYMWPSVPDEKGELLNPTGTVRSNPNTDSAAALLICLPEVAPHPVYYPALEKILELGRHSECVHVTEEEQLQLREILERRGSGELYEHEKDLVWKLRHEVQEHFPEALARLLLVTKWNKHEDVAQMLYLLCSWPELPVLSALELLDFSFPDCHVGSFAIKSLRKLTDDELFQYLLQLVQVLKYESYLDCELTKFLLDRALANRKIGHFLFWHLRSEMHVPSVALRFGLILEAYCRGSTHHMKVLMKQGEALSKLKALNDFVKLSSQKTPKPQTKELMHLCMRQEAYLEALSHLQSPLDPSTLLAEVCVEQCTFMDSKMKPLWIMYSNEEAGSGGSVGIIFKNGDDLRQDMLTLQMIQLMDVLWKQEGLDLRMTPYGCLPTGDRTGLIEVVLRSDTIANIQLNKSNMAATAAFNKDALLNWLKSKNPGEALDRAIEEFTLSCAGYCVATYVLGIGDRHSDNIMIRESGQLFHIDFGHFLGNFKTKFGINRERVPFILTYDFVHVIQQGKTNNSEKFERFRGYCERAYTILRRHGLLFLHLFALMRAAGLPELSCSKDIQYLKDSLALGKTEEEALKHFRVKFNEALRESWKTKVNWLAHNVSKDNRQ

Compound	IC50
Cc1cccc2cc(CNC(=O)c3nccnc3N)c(N3C[C@H](C)NC[C@H]3C)nc12	250 to 500 nM
COc1ccc(OCc2cc3cccc(C)c3nc2-c2ccccc2Cl)c(Cl)c1	500 to 1500 nM
CN(C)Cc1ccccc1-c1cc2c(Cl)cccc2nc1CNC(=O)c1nccnc1N	< 50 nM
COc1cnc(C(=O)NCc2nc3ccccc3cc2-c2ccccc2C)c(N)n1	500 to 1500 nM
Cc1cccc2cc(CNC(=O)c3nccnc3N)c(N(C)CCN(C)C(=O)[C@@H]3CCCN3)nc12	50 to 250 nM
CCOc1ccccc1-c1nc2c(C)cccc2cc1Cn1cnc2c(N)ncnc21	250 to 500 nM
Cc1ccc(S(=O)(=O)C(C)CCN(C)c2nc3c(C)cccc3cc2CNC(=O)c2nccnc2N)cc1 (configuration not stated)	500 to 1500 nM
CNCCN(C)c1nc2c(C)cccc2cc1CNc1cccc(OC)c1	500 to 1500 nM
CNCCN(C)c1nc2c(C)cccc2cc1COc1cccc(OC)c1	500 to 1500 nM
Cc1cccc2cc(Cn3cnc4c(N)ncnc43)c(N3CCC4CCCCC4C3)nc12 (configuration not stated)	500 to 1500 nM
COc1ccc(NCc2cc3cccc(C)c3nc2-c2ccccc2Cl)cc1OC	500 to 1500 nM
Cc1ccc(C)c(-c2nc3c(C)cccc3cc2Cn2cnc3c(N)ncnc32)c1	50 to 250 nM
COc1cc(OC)cc(OCc2cc3cccc(C)c3nc2-c2ccccc2Cl)c1	500 to 1500 nM
COc1cccc(NCc2cc3cccc(C)c3nc2-c2ccccc2Cl)c1	500 to 1500 nM
CNCCCC(C)c1nc2c(C)cccc2cc1CNC(=O)c1nccnc1N (configuration not stated)	50 to 250 nM
Cc1cccc2cc(CNC(=O)c3nccnc3N)c(N3CCC(N(C)C(=O)OC(C)(C)C)CC3)nc12	500 to 1500 nM
COc1cc(NCc2cc3cccc(C)c3nc2-c2ccccc2Cl)cc(OC)c1	500 to 1500 nM
